Data as given in patent US6340670B1, “Acetal benzylmaltosides as inhibitors of smooth muscle cell proliferation” (American Home Products Corporation, priority 1998, dated 2002).

What follows are molecules tested on Porcine Smooth Muscle Cell (assay: Effects of Compounds on Cell Proliferation Using 3H Thymidine Incorporation). Settings: serum/growth factor stimulated cells, 24-36 h incubation, read-out: Porcine Smooth Muscle Cell Antiproliferation IC50.
Type: cell-based
Description: Effects of Compounds on Cell Proliferation Using ^3H Thymidine Incorporation
Human and porcine smooth muscle cells were tested in early passage (generally passage 3-7) at sub-confluent conditions. Cultures were grown in 16 mm (24 well) multi-well culture dishes in medium 199 supplemented with 10% fetal bovine serum and 2% antibiotic/antimycotic. At sub-confluence, the cells were placed in a defined serum free medium (AIM-V; Gibco) for 24-48 h prior to initiating the experimental protocol.
Compounds were added to each well at 50 fold dilution (20 μL/well) and the plates were incubated for 24-36 h at 37° C. in 5% CO2. Compounds were initially dissolved in 50% ethanol and serially diluted into media. Compounds were routinely evaluated at concentrations from 1 to 100 μM. As a control, grade II porcine intestinal mucosal heparin (sodium salt) was routinely evaluated in all cell preparations at concentrations from 0.1 to 100 μg/mL.
At the completion of the test procedure, plates were placed on ice, washed three times with ice cold phosphate buffered saline (PBS) and incubated in ice cold 10% trichloroacetic acid (TCA) got 30 min to remove acid soluble proteins. Solution was transferred to scintillation vials containing 0.4 N HCl (500 μL/vial to neutralize NaOH) and each well was rinsed two times with water (500 μL) for a total volume of 2 mL/vial.
Data was obtained, in triplicate, for both control and experimental samples. Control (100%) data was obtained from maximally stimulated cells, as the result of growth factor or serum stimulation. Experimental data was obtained from cells maximally stimulated with growth factor or serum and treated with compound. Data are expressed as an IC50 or percent inhibition in Table I below.
`CC(=O)Nc1cc(COC2OC(COC(=O)Cc3ccccc3)C(OC3OC4COC(c5ccccc5)OC4C(O)C3O)C(O)C2O)ccc1Cl` [Example 46, (R)-N-[-2-Chloro-5-[[[6-O-(phenylacetyl)-4-O-[4,6-O-(phenylmethylene)-α-D-glucopyranosyl]-β-D-glucopyranosyl]oxy]methyl]phenyl]acetamide] showed an IC50 of 32 nM.
`CC(=O)Nc1cc(COC2OC(COC(=O)Cc3ccccc3)C(OC3OC4COC(c5ccccc5)OC4C(OC(C)=O)C3OC(C)=O)C(OC(C)=O)C2OC(C)=O)ccc1Cl` [Example 47, (R)-N-[2-Chloro-5-[[[2,3-di-O-acetyl-4-O-[2,3-di-O-acetyl-4,6-O-(phenylmethylene)-α-D-glucopyranosyl]-6-O-(phenylacetyl)-β-D-glucopyranosyl]-oxy]methyl]phenyl]acetamide] was tested, and the IC50 was 78 nM.
With `CC(=O)Nc1cc(CO[C@@H]2O[C@H](COC(=O)CCc3ccccc3)[C@@H](O[C@H]3O[C@@H]4COC(c5ccccc5)O[C@H]4[C@H](O)[C@H]3O)[C@H](O)[C@H]2O)ccc1Cl` (stereo partly drawn) [Example 48, N-{5-[(4′,6′-O-Benzylidene-6-O-phenyl-ethyl-carboxyl-β-D-maltosyl)-oxy-methyl]-2-chloro-phenyl}-acetamide] the IC50 was 7 nM.
`CC(=O)Nc1cc(COC2OC(COC(=O)CCCc3ccccc3)C(OC3OC4COC(c5ccccc5)OC4C(O)C3O)C(O)C2O)ccc1Cl` [Example 49, N-{5-[(4′,6′-O-Benzylidene-6-O-phenyl-propyl-carboxyl-β-D-maltosyl)-oxy-methyl]-2-chloro-phenyl}-acetamide] showed an IC50 of 104 nM.
With `CC(=O)Nc1cc(COC2OC(COC(=O)c3cccnc3)C(OC3OC4COC(c5ccccc5)OC4C(O)C3O)C(O)C2O)ccc1Cl` (stereo not drawn) [Example 54, Nicotinic acid 6-(3-acetylamino-4-chloro-benzyloxy)-3-(7,8-dihydroxy-2-phenyl-hexahydro-pyrano[32-d][1,3]dioxin-6-yloxy)-4,5-dihydroxy-tetrahydro-pyran-2-ylmethyl ester] the IC50 was 211 nM.
With `CC(=O)Nc1cc(COC2OC(COC(=O)c3ccc(C(=O)c4ccccc4)cc3)C(OC3OC4COC(c5ccccc5)OC4C(O)C3O)C(O)C2O)ccc1Cl` [Example 56, (R)-N-[5-[[[6-O-(4-Benzoylbenzoyl)-4-O-[4,6-O-(phenylmethylene)-α-D-glucopyranosyl]-β-D-glucopyranosyl]oxy]methyl]-2-chlorophenyl]acetamide] the IC50 was 530 nM.
Work on `CC(=O)Nc1cc(COC2OC(CO)C(OC3OC4COC(c5ccccc5)OC4C(O)C3O)C(O)C2O)ccc1C` [Example 57, N-{5-[(4′,6′-O-Benzylidene-β-D-maltosyl)-oxy-methyl]-2-methyl-phenyl}-acetamide] yielded an IC50 of 8900 nM.
`CC(=O)OCC1OC(OCc2ccc(C)c(N(C(C)=O)C(C)=O)c2)C(OC(C)=O)C(OC(C)=O)C1OC1OC2COC(c3ccccc3)OC2C(OC(C)=O)C1OC(C)=O` [Example 58, N-Acetyl-{5-[(2,2′,3,3′,6-penta-O-acetyl-4′,6′-O-benzylidene-β-D-maltosyl)-oxy-methyl]-2-methyl-phenyl}acetamide] showed an IC50 of 600 nM.
`CC(=O)Nc1cc(COC2OC(COS(=O)(=O)c3ccc(C)cc3)C(OC3OC4COC(c5ccccc5)OC4C(O)C3O)C(O)C2O)ccc1C` [Example 59, N-(5-{[4′,6′-O-Benzylidene-6-O-(4-toluenesulfonyl)-β-D-maltosyl]-oxy-methyl}-2-methyl-phenyl)-acetamide] showed an IC50 of 490 nM.
`CC(=O)Nc1cc(CO[C@@H]2O[C@H](COc3ccccc3)[C@@H](O[C@H]3O[C@@H]4COC(c5ccccc5)O[C@H]4[C@H](O)[C@H]3O)[C@H](O)[C@H]2O)ccc1Cl` (stereo partly drawn) [Example 60, N-{5-[(4′,6′-O-Benzylidene-6-O-phenyl-β-D-maltosyl)-oxy-methyl]-2-chloro-phenyl}-acetamide] gave an IC50 of 38 nM.
For `O=C(Nc1cc(COC2OC(CO)C(OC3OC4COC(c5ccccc5)OC4C(O)C3O)C(O)C2O)ccc1Cl)c1cccnc1` [Example 61, (R)-N-[2-Chloro-5-[[[4-O-[4′,6′-O-(phenylmethylene)-α-D-glucopyranosyl]-β-D-glucopyranosyl]oxy]methyl]phenyl]-3-pyridinecarboxamide], the IC50 was 13700 nM.
`O=C(Nc1cc(CO[C@@H]2O[C@H](COC(=O)c3ccccc3)[C@@H](O[C@H]3O[C@@H]4CO[C@@H](c5ccccc5)O[C@H]4[C@H](O)[C@H]3O)[C@H](O)[C@H]2O)ccc1Cl)c1cccnc1` [Example 62, (R)-N-[5-[[[6-O-Benzoyl-4-O-[4′,6′-O-(phenylmethylene)-α-D-glucopyranosyl]-β-D-glucopyranosyl]oxy]methyl]-2-chlorophenyl]-3-pyridinecarboxamide] was tested, and the IC50 was 23 nM.
With `O=C(Nc1cc(CO[C@@H]2O[C@H](CO)[C@@H](O[C@H]3O[C@@H]4COC(c5ccccc5)O[C@H]4[C@H](O)[C@H]3O)[C@H](O)[C@H]2O)ccc1Cl)c1ccco1` (stereo partly drawn) [Example 63, Furan-2-carboxylic acid {5-[(4′,6′-O-benzylidene-β-D-maltosyl)-oxy-methyl]-2-chloro-phenyl}-amide] the IC50 was 7730 nM.
In the case of `O=C(OCC1OC(OCc2ccc(Cl)c(NC(=O)c3ccco3)c2)C(O)C(O)C1OC1OC2COC(c3ccccc3)OC2C(O)C1O)c1ccccc1` [Example 64, Furan-2-carboxylic acid {5-[(6-O-benzoyl-4′,6′-O-benzylidene-β-D-maltosyl)-oxy-methyl]-2-chloro-phenyl}-amide], the IC50 is reported as 50 nM.
Molecule `C=CCCC(=O)Nc1cc(COC2OC(CO)C(OC3OC4COC(c5ccccc5)OC4C(O)C3O)C(O)C2O)ccc1Cl` [Example 65, N-{2-Chloro-5-[(4′,6′-O-benzylidene-β-D-maltosyl)-oxy-methyl]-phenyl}-pent-4-enamide] has an IC50 of 17800 nM.
`C=CCCC(=O)Nc1cc(CO[C@@H]2O[C@H](COC(=O)c3ccccc3)[C@@H](O[C@H]3O[C@@H]4COC(c5ccccc5)O[C@H]4[C@H](O)[C@H]3O)[C@H](O)[C@H]2O)ccc1Cl` (stereo partly drawn) [Example 66, N-{2-Chloro-5-[(6-O-benzoyl-4′,6′-O-benzilidene-β-D-maltosyl)-oxy-methyl]-phenyl}-pent-4-enamide] gave an IC50 of 180 nM.
`Nc1cc(COC2OC(COC(=O)c3ccccc3)C(OC3OC4COC(c5ccccc5)OC4C(O)C3O)C(O)C2O)ccc1Cl` [Example 67, 5-(6-O-Benzoyl-4′,6′-O-benzylidene-β-D-maltosyl)-oxy-methyl-2-chloro-phenylamine] was tested, and the IC50 was 1290 nM.
`OCC1OC(OCc2ccc(Cl)cc2)C(O)C(O)C1OC1OC2COC(c3ccccc3)OC2C(O)C1O` [Example 68, (4-Chloro)-benzyl-4′,6′-O-benzylidene-β-D-maltoside] was tested, and the IC50 was 25300 nM.
`O=C(OCC1OC(OCc2ccc(Cl)cc2)C(O)C(O)C1OC1OC2COC(c3ccccc3)OC2C(O)C1O)c1ccccc1` [Example 69, Benzoic acid 1-O-(4-chloro)-benzyl-4′,6′-O-benzylidene-6-deoxy-β-D-malto-6-yl ester] showed an IC50 of 1530 nM.
`O=C(Nc1cc(COC2OC(CO)C(OC3OC4COC(c5ccccc5)OC4C(O)C3O)C(O)C2O)ccc1Cl)c1ccc(C(=O)c2ccccc2)cc1` [Example 70, 4-Benzoyl-N-{5-[(4′,6′-O-benzylidene-β-D-maltosyl)-oxy-methyl]-2-chloro-phenyl}-benzamide] gave an IC50 of 9940 nM.
`O=C(Nc1cc(COC2OC(COC(=O)c3ccccc3)C(OC3OC4COC(c5ccccc5)OC4C(O)C3O)C(O)C2O)ccc1Cl)c1ccc(C(=O)c2ccccc2)cc1` [Example 71, 4-Benzoyl-N-{5-[(6-benzoyl-oxy-4′,6′-O-benzylidene-β-D-maltosyl)-oxy-methyl]-2-chloro-phenyl}-benzoic acid amide] gave an IC50 of 50 nM.
